The test system of this assay is CD2F1 mice, P1798 lymphosarcoma sc, tumor weight T/C. The assay can be described thus: NCI In Vivo Anticancer Drug Screen. Data for tumor model P1798 Lymphosarcoma (subcutaneous) in CD2F1 (CDF1) mice. The note with it: endpoint: mean tumor weight, higher = larger tumour. Here is the method: The antitumor activity of compounds was measured in mice bearing transplantable tumors. Survival or tumor size were measured and the results are expressed as the measurement made in the treated group (T) divided by the measurement made in the vehicle treated control group (C). The tumor model used in this assay is P1798 Lymphosarcoma (subcutaneous) in CD2F1 (CDF1) mice

Setting [1] is: dose: 12.5 mg/kg/injection, schedule: Q01DX005 (sc), vehicle: steriod suspending solution.
Where [2] appears, read: dose: 12.5 mg/kg/injection, schedule: Q01DX010 (sc), vehicle: steriod suspending solution.
Setting [3] is: dose: 25.0 mg/kg/injection, schedule: Q01DX005 (sc), vehicle: steriod suspending solution.
Setting [4] is: dose: 50.0 mg/kg/injection, schedule: Q01DX005 (sc), vehicle: steriod suspending solution.
Where [5] appears, read: dose: 50.0 mg/kg/injection, schedule: Q02DX010 (sc), vehicle: steriod suspending solution.
[6] abbreviates: dose: 50.0 mg/kg/injection, schedule: Q03DX004 (sc), vehicle: steriod suspending solution.
[7] abbreviates: dose: 100.0 mg/kg/injection, schedule: Q01DX005 (sc), vehicle: steriod suspending solution.
Setting [8] is: dose: 100.0 mg/kg/injection, schedule: Q02DX010 (sc), vehicle: steriod suspending solution.
Where [9] appears, read: dose: 100.0 mg/kg/injection, schedule: Q03DX004 (sc), vehicle: steriod suspending solution.
Where [10] appears, read: dose: 25.0 mg/kg/injection, schedule: Q01DX010 (sc), vehicle: steriod suspending solution.
The mark [11] stands for this setting: dose: 200.0 mg/kg/injection, schedule: Q01DX010 (sc), vehicle: steriod suspending solution.
The mark [12] stands for this setting: dose: 1.56 mg/kg/injection, schedule: Q01DX010 (ip), vehicle: saline.
Where [13] appears, read: dose: 3.13 mg/kg/injection, schedule: Q01DX010 (ip), vehicle: saline.
Where [14] appears, read: dose: 6.25 mg/kg/injection, schedule: Q01DX010 (ip), vehicle: saline.
The mark [15] stands for this setting: dose: 12.5 mg/kg/injection, schedule: Q01DX010 (ip), vehicle: saline.
[16] abbreviates: dose: 25.0 mg/kg/injection, schedule: Q01DX010 (ip), vehicle: saline.
[17] abbreviates: dose: 50.0 mg/kg/injection, schedule: Q01DX010 (ip), vehicle: saline.
[18] abbreviates: dose: 100.0 mg/kg/injection, schedule: Q01DX010 (ip), vehicle: saline.
Setting [19] is: dose: 200.0 mg/kg/injection, schedule: Q01DX010 (ip), vehicle: saline.
Where [20] appears, read: dose: 100.0 mg/kg/injection, schedule: Q01DX010 (sc), vehicle: steriod suspending solution.
Setting [21] is: dose: 5.0 mg/kg/injection, schedule: Q01DX010 (ip), vehicle: saline.
Where [22] appears, read: dose: 10.0 mg/kg/injection, schedule: Q01DX010 (ip), vehicle: saline.
The mark [23] stands for this setting: dose: 20.0 mg/kg/injection, schedule: Q01DX010 (ip), vehicle: saline.
Setting [24] is: dose: 40.0 mg/kg/injection, schedule: Q01DX010 (ip), vehicle: saline.
The mark [25] stands for this setting: dose: 50.0 mg/kg/injection, schedule: Q01DX010 (sc), vehicle: steriod suspending solution.
Where [26] appears, read: dose: 15.0 mg/kg/injection, schedule: Q01DX010 (ip), vehicle: saline.
The mark [27] stands for this setting: dose: 30.0 mg/kg/injection, schedule: Q01DX010 (ip), vehicle: saline.
Where [28] appears, read: dose: 60.0 mg/kg/injection, schedule: Q01DX010 (ip), vehicle: saline.

Values joined by “and” are separate entries in the source; they are usually repeats but may differ in a detail not shown here. Identical values can stand only once.

As usually defined, the T/C is the ratio of treated to control.

In the case of `CC(=O)[C@@]12OC(C)(C)O[C@@H]1C[C@H]1[C@@H]3C[C@H](C)C4=CC(=O)CC[C@]4(C)[C@H]3CC[C@@]12C`, the T/C under setting [1] is 72 % of control; the T/C under setting [2] was 64 % of control; the T/C under setting [3] is 61 % of control; the T/C (dose: 25.0 mg/kg/injection, schedule: Q02DX010 (sc), vehicle: steriod suspending solution) is 95 % of control; the T/C (dose: 25.0 mg/kg/injection, schedule: Q03DX004 (sc), vehicle: steriod suspending solution) was 56 % of control; the T/C under setting [4] was 38 % of control. Further, the T/C reads like this: under setting [5], 88 % of control; under setting [6], 59 % of control; under setting [7], 13 % of control; under setting [8], 93 % of control; under setting [9], 16 % of control.

Consider `CC(=O)[C@H]1CC[C@H]2[C@@H]3C[C@H](C)C4=CC(=O)CC[C@]4(C)[C@H]3C(=O)C[C@]12C`, for which the T/C runs as follows: under setting [1], 89 % of control; under setting [2], 93 % of control and 95 % of control; under setting [3], 62 % of control; under setting [10], 92 % of control and 96 % of control; under setting [4], 41 % of control; under setting [5], 96 % of control. In addition, the T/C runs as follows: under setting [6], 43 % of control; (dose: 75.0 mg/kg/injection, schedule: Q01DX010 (sc), vehicle: steriod suspending solution) 103 % of control; (dose: 75.0 mg/kg/injection, schedule: Q02DX010 (sc), vehicle: steriod suspending solution) 89 % of control; under setting [7], 32 % of control; under setting [8], 93 % of control; under setting [9], 46 % of control. Also, the T/C under setting [11] is 22 % of control.

On to `O=C(O)C(=O)O.[U]`, for which the T/C is 64 % of control under setting [12], 45 % of control under setting [13], 28 % of control under setting [14] and 30 % of control under setting [15].

Turning to `NC(N)=NCCCC(N)C(=O)NCCCCCCNC(=O)C(N)CCCN=C(N)N` (stereo not drawn), the T/C is, setting by setting: under setting [16], 94 % of control; under setting [17], 85 % of control; under setting [18], 99 % of control; under setting [19], 90 % of control.

With `OCC1OC(n2cnc3c(Cl)ncnc32)C(O)C1O` (stereo not drawn), the T/C (dose: 250.0 mg/kg/injection, schedule: Q01DX010 (ip), vehicle: saline) is 95 % of control and 103 % of control.

`Cc1cc(C(C)(C)C)ccc1O`: the T/C by setting is: (dose: 6.2 mg/kg/injection, schedule: Q01DX011 (ip), vehicle: carboxymethylcellulose (CMC)) 47 % of control; (dose: 12.5 mg/kg/injection, schedule: Q01DX011 (ip), vehicle: carboxymethylcellulose (CMC)) 105 % of control; (dose: 25.0 mg/kg/injection, schedule: Q01DX011 (ip), vehicle: carboxymethylcellulose (CMC)) 106 % of control.

In the case of `CC/C(=C(/CC)c1ccc(O)cc1)c1ccc(O)cc1`, the T/C reads like this: (dose: 6.25 mg/kg/injection, schedule: Q01DX010 (sc), vehicle: steriod suspending solution) 91 % of control and 96 % of control; under setting [20], 22 % of control and 45 % of control.

With `CS(=O)(=O)OCCN(CCOS(C)(=O)=O)c1ccc(N=O)cc1`, the T/C was 92 % of control (dose: 0.25 mg/kg/injection, schedule: Q01DX010 (ip), vehicle: saline) and 69 % of control (dose: 1.0 mg/kg/injection, schedule: Q01DX010 (ip), vehicle: saline).

Take `O=C1C=Cc2ccc(O)cc2C1=O`: the T/C runs as follows: (dose: 1.25 mg/kg/injection, schedule: Q01DX010 (ip), vehicle: saline) 72 % of control; (dose: 2.5 mg/kg/injection, schedule: Q01DX010 (ip), vehicle: saline) 63 % of control.

As for `C[C@@H]1C[C@@H]([C@H](O)CC2CC(=O)NC(=O)C2)C(=O)[C@@H](C)C1`, the T/C runs as follows: under setting [21], 80 % of control and 81 % of control; under setting [22], 99 % of control and 103 % of control; under setting [23], 63 % of control and 75 % of control; under setting [24], 43 % of control and 60 % of control.

Take `CCN(CC)CCNc1ccc(C)c2sc3ccccc3c(=O)c12`: the T/C reads like this: under setting [15], 76 % of control; under setting [16], 31 % of control and 43 % of control; under setting [17], 10 % of control and 29 % of control; under setting [18], 10 % of control.

For the molecule `S=P(N1CCOCC1)(N1CC1)N1CC1`, the T/C under setting [22] is 50 % of control and 75 % of control; the T/C under setting [23] was 24 % of control.

Take `C[C@]12CC[C@@H]3c4ccc(O)cc4CC[C@H]3[C@@H]1CC(=O)[C@@H]2O`: the T/C was 94 % of control and 89 % of control under setting [2]; 92 % of control and 96 % of control under setting [10]; 78 % of control and 86 % of control under setting [25].

As to `CS(=O)(=O)OCCCl`, the T/C was 155 % of control (dose: 9.4 mg/kg/injection, schedule: Q01DX010 (ip), vehicle: saline); 171 % of control (dose: 18.8 mg/kg/injection, schedule: Q01DX010 (ip), vehicle: saline); 186 % of control (dose: 37.5 mg/kg/injection, schedule: Q01DX010 (ip), vehicle: saline); 86 % of control (dose: 75.0 mg/kg/injection, schedule: Q01DX010 (ip), vehicle: saline).

With `CC(=O)[C@H]1CC[C@H]2[C@@H]3CCC4=CC(=O)[C@H](C)C[C@]4(C)[C@@]3(F)[C@@H](O)C[C@]12C`, the T/C is 15 % of control under setting [10]; 5 % of control under setting [25]; 4 % of control under setting [20]; 6 % of control under setting [11]; 5 % of control (dose: 400.0 mg/kg/injection, schedule: Q01DX010 (sc), vehicle: steriod suspending solution).

As for `COc1cc(C[C@H]2c3cc(OC)c(OC)cc3CCN2C)c(Oc2cc3c(cc2OC)-c2c(OC)c(OC)cc4c2[C@H](C3)N(C)CC4)cc1OC`, the T/C (dose: 50.0 mg/kg/injection, schedule: Q01DX011 (ip), vehicle: carboxymethylcellulose (CMC)) is 13 % of control.

With `O=C(O)CCCc1ccc(N(CCCl)CCCl)cc1`, the T/C runs as follows: under setting [12], 69 % of control; under setting [13], 31 % of control and 52 % of control; under setting [14], 32 % of control and 37 % of control; under setting [15], 3 % of control.

For `CC(=O)NCCCCCCNCCCCCCNC(C)=O`, the T/C under setting [17] is 99 % of control; the T/C under setting [18] was 92 % of control; the T/C under setting [19] was 102 % of control; the T/C (dose: 400.0 mg/kg/injection, schedule: Q01DX010 (ip), vehicle: saline) was 80 % of control.

Consider `CSc1ncnc2nc[nH]c12`, for which the T/C is 100 % of control and 78 % of control under setting [16]; 81 % of control and 86 % of control under setting [17]; 94 % of control and 70 % of control under setting [18]; 61 % of control and 64 % of control under setting [19].

Regarding `[N-]=[N+]=CC(=O)CCC(N)C(=O)O` (stereo not drawn), the T/C runs as follows: (dose: 0.01 mg/kg/injection, schedule: Q01DX010 (ip), vehicle: saline) 102 % of control; (dose: 0.03 mg/kg/injection, schedule: Q01DX010 (ip), vehicle: saline) 89 % of control; (dose: 0.05 mg/kg/injection, schedule: Q01DX010 (ip), vehicle: saline) 100 % of control; (dose: 0.1 mg/kg/injection, schedule: Q01DX010 (ip), vehicle: saline) 108 % of control.

`CC(/C=N/N=C(N)N)=N\N=C(N)N`: the T/C under setting [26] is 78 % of control, the T/C under setting [27] is 87 % of control and the T/C under setting [28] is 50 % of control.

As for `O=c1[nH]c(=O)n(C2CC(O)C(CO)O2)cc1F` (stereo not drawn), the T/C is 73 % of control under setting [21]; 68 % of control and 84 % of control under setting [22]; 47 % of control and 55 % of control under setting [23]; 15 % of control and 28 % of control under setting [24]; 1 % of control (dose: 80.0 mg/kg/injection, schedule: Q01DX010 (ip), vehicle: saline).

`N#CCSc1ncnc2nc[nH]c12`: the T/C reads like this: (dose: 7.5 mg/kg/injection, schedule: Q01DX010 (ip), vehicle: saline) 87 % of control; under setting [26], 56 % of control; under setting [27], 97 % of control and 109 % of control; under setting [28], 97 % of control and 108 % of control.
